We go through eleven compounds from ChEMBL document CHEMBL1201862, “PubChem BioAssay data set” (2004).

Holding throughout (test): NCI tumour cell line growth inhibition, 48 h
Assay [1] concerns CAKI-1.
For assay [2], the system named is LOX IMVI.
For assay [3], the system named is NCI/ADR-RES.
The test system of assay [4] is HOP-62.
Assay [5] has as its system HL-60.
For assay [6], the system named is SF-539.
Assay [7] has as its system SN12C.
In assay [8] the test system is MDA-N.
Assay [9] has as its system CCRF-CEM.
The test system of assay [10] is OVCAR-8.
Assay [11] has as its system MDA-MB-231.
Assay [12] relates to A498.
The subject of assay [13] is 786-0.
Assay [14] relates to Hs-578T.
Assay [15] deals with SNB-75.
Assay [16] relates to SK-MEL-28.
Assay [17] concerns SR.
Assay [18] has as its system HCC 2998.
Assay [19] concerns OVCAR-3.
Assay [20] deals with K562.

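A five-concentration, 48-hour dose response in 96-well plates underlies each endpoint, interpolated linearly between surrounding concentrations. The concentration for 50% growth inhibition is given as GI50.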 Activity calls are given as the source filed them. Rule as the data show it: active = GI50 up to about 1.1 µM and inactive = higher.

`CC1(CC(=O)OC(C#C[Si](C)(C)C)Cc2ccccc2)OCCO1` (stereo not given): the GI50 in assay [1], in assay [2], in [3], in assay [4], in assay [5] and in [6] was > 100 µM (inactive) in each case. Besides, the GI50 in assay [7], in [8], in [9], in assay [10], in assay [11] and in assay [12] was > 100 µM (inactive) each time. Moreover, the GI50 in assay [13], in assay [14], in assay [15] and in assay [16] was > 100 µM (inactive) throughout.

For `O=[N+]([O-])c1ccc(NN=C2CN3CCN(C2)c2ccccc23)c([N+](=O)[O-])c1`, the GI50 in assay [1], in assay [2], in [3], in assay [4], in assay [17] and in assay [18] was > 100 µM (inactive) in each case. Moreover, the GI50 in assay [19], in assay [6], in assay [7], in [8], in [9] and in assay [10] was > 100 µM (inactive) throughout. The GI50 in assay [11], in assay [12], in [20], in [13], in [14] and in assay [16] was > 100 µM (inactive) each time.

For `COc1cc(OC)cc(OCc2nc3cc(C(F)(F)F)ccc3nc2-c2ccccc2)c1`, the GI50 in assay [1], in assay [2], in assay [3], in assay [4], in assay [17] and in assay [18] was > 100 µM (inactive) throughout. The GI50 in assay [19], in [5], in [6], in assay [7], in [8] and in assay [9] was > 100 µM (inactive) each time. For the same compound, the GI50 in assay [10] is > 100 µM (inactive); in [11], 76.4 µM (inactive); in assay [20], > 100 µM (inactive); in assay [13], > 100 µM (inactive); in assay [14], 69.2 µM (inactive); in assay [15], > 100 µM (inactive). Further, the GI50 in assay [16] was > 100 µM (inactive).

As to `O=C(O)/C(=C/c1ccccc1)c1ccccc1`, the GI50 in assay [1], in assay [2], in assay [3], in assay [4], in [18] and in [19] was > 100 µM (inactive) in each case. Further, the GI50 in assay [5], in assay [6], in [7], in assay [8], in assay [9] and in assay [10] was > 100 µM (inactive) throughout. For the same compound, the GI50 in assay [11], in [12], in assay [20], in [13], in assay [14] and in assay [15] was > 100 µM (inactive) throughout. Moreover, the GI50 in [16] was > 100 µM (inactive).

As for `CCCCSC1=N/C(=C\c2ccc(N(C)C)cc2)C(Cl)=N1`, the GI50 in assay [1], in assay [2], in assay [3], in [4], in [18] and in assay [19] was > 100 µM (inactive) throughout. The GI50 in assay [6] is > 100 µM (inactive); in [7], > 100 µM (inactive); in assay [8], > 100 µM (inactive); in assay [10], > 100 µM (inactive); in [11] it was > 100 µM (inactive); in assay [12], 78.2 µM (inactive). Further, the GI50 in assay [20], in assay [13], in [14], in assay [15] and in assay [16] was > 100 µM (inactive) in each case.

In the case of `O=[N+]([O-])C(=C(N1CCCCC1)N1CCCCC1)/C(Cl)=C(\Cl)[N+](=O)[O-]`, the GI50 in assay [1] is 1.19 µM (inactive); in [2], 2.32 µM (inactive); in assay [3], 22.7 µM (inactive); in assay [4], 15.6 µM (inactive); in assay [17], 2.19 µM (inactive); in assay [18], 22.1 µM (inactive). In addition, the GI50 in [19] is 3.79 µM (inactive); in assay [6] it was 9.1 µM (inactive); in assay [7] it was 1.67 µM (inactive); in assay [8], 5.94 µM (inactive); in [9], 5.11 µM (inactive); in [10], 10.9 µM (inactive). Also, the GI50 is 7.59 µM (inactive) in [11]; 17.9 µM (inactive) in [12]; 1 µM (active) in assay [20]; 3.42 µM (inactive) in assay [13]; 4.86 µM (inactive) in assay [14]; 17.5 µM (inactive) in [15]. Also, the GI50 in assay [16] was 16.8 µM (inactive).

Consider `COC(=O)c1ccccc1C1CN=NC12Cc1ccccc1C2=O` (stereo not given), for which the GI50 in assay [1] is > 100 µM (inactive); in assay [2], 45.4 µM (inactive); in assay [3], 46.8 µM (inactive); in [4] it was > 100 µM (inactive); in assay [17], > 100 µM (inactive); in assay [18], > 100 µM (inactive). For the same compound, the GI50 in assay [19] was 40.5 µM (inactive); in assay [5] it was 47.4 µM (inactive); in assay [6], > 100 µM (inactive); in assay [7], > 100 µM (inactive); in assay [8], > 100 µM (inactive); in assay [9], > 100 µM (inactive). Further, the GI50 in assay [10] was 59.6 µM (inactive); in assay [11], 78 µM (inactive); in assay [20], 68.5 µM (inactive); in [13], > 100 µM (inactive); in assay [14], 50.7 µM (inactive); in assay [15], 43.6 µM (inactive). Also, in assay [16], the GI50 was 77.6 µM (inactive).

Consider `CN(C)c1ccc(/C=C(\NC(=O)c2ccccc2)c2nn(C)c(=O)o2)cc1`, for which the GI50 in assay [1] is > 100 µM (inactive); in assay [2], 60.1 µM (inactive); in [3] it was 21.7 µM (inactive); in assay [4] it was 18.1 µM (inactive); in assay [18], > 100 µM (inactive); in assay [19], 43.9 µM (inactive). Besides, the GI50 in [5] was 34.6 µM (inactive); in [6] it was 33.5 µM (inactive); in assay [7] it was > 100 µM (inactive); in assay [8], 53.6 µM (inactive); in assay [9], 34.7 µM (inactive); in assay [10] it was 26.7 µM (inactive). Further, the GI50 in assay [11] was > 100 µM (inactive); in assay [12], > 100 µM (inactive); in assay [20] it was > 100 µM (inactive); in assay [13], 41.5 µM (inactive); in assay [14], 62.1 µM (inactive); in assay [15], 16.9 µM (inactive). The GI50 in [16] was > 100 µM (inactive).

For the compound `CN(/N=C/C=N/N(C)C1=NCCCN1)C1=NCCCN1`, the GI50 in assay [1], in assay [2], in assay [3], in [4], in [17] and in assay [18] was > 100 µM (inactive) in each case. The GI50 in assay [19], in assay [6], in assay [7], in assay [8], in assay [9] and in [10] was > 100 µM (inactive) each time. For the same compound, the GI50 in assay [11], in assay [20], in assay [13], in assay [14], in assay [15] and in assay [16] was > 100 µM (inactive) each time.

For the compound `O=C1C2C(C(=O)N1c1ccccc1)C1(c3ccccc3)CCC2(C(=O)c2ccccc2)O1` (stereo not given), the GI50 in assay [1], in assay [2], in assay [3], in [4], in assay [18] and in assay [19] was > 10 µM (inactive) in each case. Besides, the GI50 in assay [5], in assay [6], in assay [7], in assay [8], in [9] and in [10] was > 10 µM (inactive) throughout. Moreover, the GI50 in [11], in assay [12], in assay [13], in assay [14] and in [16] was > 10 µM (inactive) each time.

Regarding `CC(=O)OC1CC[C@@]2(C)C(CC[C@]3(C)C2CC=C2[C@@H]4CC(C)(C)CCC4(C)CCC23C)[C@@]1(C)C(=O)O` (stereo not given in full), the GI50 in assay [1] was 18.5 µM (inactive); in assay [2], 13.8 µM (inactive); in [4], 19.9 µM (inactive); in [17] it was 22.8 µM (inactive); in assay [18], 14.5 µM (inactive); in assay [19], 15.1 µM (inactive). In addition, the GI50 in assay [5] is 31.3 µM (inactive); in assay [6] it was 19.9 µM (inactive); in assay [7], 16.4 µM (inactive); in assay [8], 21.9 µM (inactive); in assay [9], 23.4 µM (inactive); in assay [10], 14 µM (inactive). Besides, the GI50 in assay [11] was 20.9 µM (inactive); in assay [12] it was 19.2 µM (inactive); in [20] it was 19.2 µM (inactive); in [13], 17.6 µM (inactive); in [14], 20.5 µM (inactive); in [15], 23 µM (inactive). The GI50 in assay [16] was 21.2 µM (inactive).
